Assay results reported in patent US4709083A, “Method of making boron analogues” (The United States of America as represented by the …, priority 1986, dated 1987).

Tests used:
serum triglyceride = assay: hyperlipidemic screen: serum triglycerides (Fisher, Hycel Triglyceride Test Kit); format: in vivo; settings: male CF1 mice, intraperitoneal, 20 mg/kg day, 1% aqueous carboxymethylcellulose
Experimental: (§1) A hyperlipidemic screen was performed using the compounds of Examples 2 and 4. The compounds were suspended in 1% aqueous carboxymethylcellulose and adimistered to male CF1 mice intraperitoneally for 16 days at a dosage of 20 mg/kg day.
(§2) On days 9 and 16 blood was obtained by tail vein bleeding and the serum separated by centrifugation for 3 min.
(§3) Serum cholesterol levels were determined using a modification of the Liebermann-Burchard reaction, see Ness et al, Clin. Chim. Acta, v. 10, p. 229, (1964). Serum triglicerides were determined using the Fisher, Hycel Triglyceride Test Kit, a commercially available kit.

serum cholesterol = assay: hyperlipidemic screen: serum cholesterol levels (modified Liebermann-Burchard reaction); format: in vivo; settings: male CF1 mice, intraperitoneal, 20 mg/kg day, 1% aqueous carboxymethylcellulose
Experimental: as §1, §2, §3

Structure (SMILES) | Triglyceride inhibition %, 16th Day (serum triglyceride) [%] | Serum cholesterol inhibition %, 9th Day (serum cholesterol) [%] | Serum cholesterol inhibition %, 16th Day (serum cholesterol) [%]
[BH3-][N+](C)(C)CCOC(C)=O [Example 2, 2 (Acetoxyethyl)dimethylamine-borane] | 32 | 28 | 41
[BH3-][N+](C)(C)CCOC(=O)c1ccccc1 [Example 4, 2-(benzoyloxyethyl)dimethylamine-Borane] | 31 | 31 | 37
